For two compounds, EC50, remaining activity and IC50 results are on record in patent publication US20070032502A1, “Quinazoline derivatives useful in cancer treatment” (Schering Corporation, priority 2005, published 2007).

What is called IC50 is the point on the concentration scale where inhibition reaches its midpoint.

Molecules are shown by their SMILES. Read-outs that look alike come from different tables or passages of the source. A value given as a limit tells only on which side of the number the result lay.

In assay [1] the test system is MB468. Put plainly: Proliferation assay (Calcein AM viability, 72 hours). The class given is cell-based. The conditions noted are these: 72 h, MB468 cells, 72 hours. How it is done: This assay measures the growth suppression effects of small molecules in cells with mutant p53 vs. p53 null background. It uses Calcein AM to measure cellular viability. Cells (p53 null and mutant) are harvested and plated at 5000 cells per well in a 96-well tissue culture plate. The volume of cells in growth media is 100 µl. Serial dilutions (2× concentration) of compounds are then made and transferred to the plate of cells. The volume of compounds in the growth media is 100 μL. This dilution of compound with cells gives a 1× final dilution of compound (200 μL total volume). Plates are then incubated at 37° C. for 72 hours. Media is then poured off and Calcein AM is added at the appropriate concentration and the plates are incubated in the dark for 15 minutes and read for fluorescence. […] Compounds having EC50 values of 6 uM or higher have been assigned the letter “D”. These letter rating has been used throughout in the data tables above.

Assay [2] has as its target GST-p53 DNA binding domain (aa 92-aa 312) (Homo sapiens, UniProt P04637). The assay can be described thus: Scintillation Proximity Assay (SPA), displacement of 3H STANDARD COMPOUND
To be noted: 1 h, 2 ug/mL of drug, lower is better. From the text:
Most of the oncogenic mutants of the tumor suppressor protein p53 lack sequence specific DNA binding activity at physiological temperature due to conformational changes in the DNA binding domain. Small molecules and peptide which bind to the p53 DNA binding domain stabilize the conformation and restore DNA binding activity to mutant p53 protein (Science 286, 2507-2510, 1999; PNAS, 99, 937-942, 2002). Using ^3H STANDARD COMPOUND (which is ^3H of the compound #1 of the present invention; the * Carbon atom is the one labeled; structure shown below), [drawing 2234] a radio labeled small molecule which binds to p53, and the GST-p53 DNA binding domain (aa 92-aa 312), we have developed a quantitative screening assay. The assay is based on Scintillation Proximity Assay (SPA) technology, developed by Amersham Biosciences to measure molecular interactions. Briefly, the complex of GST-p53, ^3H STANDARD and Glutathione-SPA beads (Amersham Biosciences) are incubated with mixing for 1 hr at room temperature in the presence of the novel compounds to be screened. The signal is read on Microbeta. The compounds which have the ability to displace ^3H STANDARD COMPOUND are selected. Such molecules will stabilize the conformation and restore DNA binding activity to mutant p53 protein.
The above assay was used to determine the ability of the compounds of this invention to restore DNA binding activity to mutant p53 and the results for selected compounds have been given above in various tables.
A letter rating corresponding to % Residual total binding (T) @ 2 ug/mL of drug (i.e., compound of the present invention) from this assay have been assigned as follows: Compounds having % Residual T values of from 0% to less than 20% have been assigned the letter “A”. Compounds having % Residual T values of from 20% to less than 40% have been assigned the letter “B”. Compounds having % Residual T values of from 40% to less than 80% have been assigned the letter “C”. Compounds having % Residual T values of 80% or higher have been assigned the letter “D”. The exact % Residual T values @ 2 ug/mL for some illustrative compounds are shown below: […]
A general note: Scintillation proximity formats need no separation of bound from free tracer.

In assay [3] the test system is Human tumor DLD1 cells containing mutant p53. The assay can be described thus: Soft agar assay (colony outgrowth). The class given is cell-based. The conditions noted are these: DLD-1, 10-16 days. How it is done: This method assesses the ability of cells to grow in the absence of adhesion, which is a characteristic of tumorigenic cell lines.
Human tumor DLD1 cells containing mutant p53 are suspended in growth medium containing 0.3% agarose and an indicated concentration of small molecule. The solution is overlayed onto growth medium solidified with 0.6% agarose containing the same concentration of the small molecule as the top layer. After the top layer is solidified the plates are incubated for 10-16 days at 37° C. under 5% CO2 to allow colony outgrowth. After incubation, colonies are stained by overlaying the agar with a solution of MTT (3-[4,5-dimethyl-thiazol-2-yl]-2,5-diphenyltetrazolium bromide; Thiazolyl blue; […] in PBS). Colonies are counted to measure growth and efficacy of the small molecule.

For assay [4], the system named is pancreatic cells. The assay can be described thus: Potentiation of growth suppression with temozolomide (proliferation assay, temozolomide IC50). The class given is cell-based. To be noted: Homo sapiens, TMZ alone. How it is done:
(§1) That the compounds of the present invention potentiate the growth suppression activity of temozolomide is illustrated by the fact that the compounds lower the temolozomide IC50 in various cell lines. The proliferation assay used is similar to that set forth above, and comprises the following general steps. • TMZ is diluted 2 fold in complete medium. • Cells are harvested and placed in each well with diluted TMZ. Cell conc. is 5000 cells per well in complete medium. • Appropriate concentration of compounds of present invention are then added to each well in combination with diluted TMZ. • Plates are incubated at 37° C. for 72 hrs. • Medium is poured off and 50 μL per well of Calcein AM (10 uM is added. Plate is then read in the fluorescent plate reader.
The extent of increase can be quantitated as is shown below in FIG. 5.

For assay [5], the system named is U87. Put plainly: Potentiation of growth suppression with temozolomide (proliferation assay, temozolomide IC50), U87 glioma cells. The class given is cell-based. To be noted: Homo sapiens, U-87 MG, p53 wild, TMZ alone. How it is done: as §1
Assay [6] concerns LN 18. The assay can be described thus: Potentiation of growth suppression with temozolomide (proliferation assay, temozolomide IC50), LN 18 glioma cells. The conditions noted are these: Homo sapiens, p53 mutant, TMZ alone. The class given is cell-based. How it is done: as §1

Chain of GST-p53 DNA binding domain (aa 92-aa 312) (P04637 92-312): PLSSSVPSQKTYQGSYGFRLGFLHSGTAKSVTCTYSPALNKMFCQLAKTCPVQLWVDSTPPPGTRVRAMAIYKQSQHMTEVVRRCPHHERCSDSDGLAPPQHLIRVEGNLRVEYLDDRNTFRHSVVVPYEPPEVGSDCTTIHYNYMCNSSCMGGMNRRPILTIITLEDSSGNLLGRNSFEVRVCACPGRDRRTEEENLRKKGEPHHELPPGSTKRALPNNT

`CN(C)CCCNc1nc(CN2CCN(C(c3ccc(Cl)cc3)c3ccc(Cl)cc3)CC2)nc2ccccc12` [Example 1, N′-(2-{4-[BIS-(4-CHLOROPHENYL)METHYL]PIPERAZIN-1-YLMETHYL}QUINAZOLIN-4-YL)-N,N-DIMETHYLPROPANE-1,3-DIAMINE]: the EC50 in assay [1] (read-out: EC50 rating according to the proliferation assay (MB468)) is less than 2 µM; in assay [1] (read-out: PROLIFERATION ASSAY EC50 MB468), 1.1 µM. Further, the remaining activity at 2 µg/mL in assay [2] (read-out: % Residual T @ 2 ug/mL rating according to scintillation proximity assay (SPA)) is 0 to 20%; in assay [2] (read-out: SPA ASSAY % Residual T @ 2 ug/mL of drug (Average of)) it was 16.1%. The same compound gave an IC50 in assay [3] of 0.39 µM.

Take `Cn1nnc2c(C(N)=O)ncn2c1=O` [TMZ, temozolomide]: the IC50 in assay [4] (MIA PaCa-2, Miapaca-2, Pancreas, p53 mutant) came out at 3320 µM; in assay [4] (Capan-1, Pancreas, p53 mutant), 2860 µM; in assay [4] (Capan-2, Pancreas, p53 wild), 4310 µM; in assay [5] it was 2540 µM; in assay [6] it was 2700 µM.
